Experimental findings from patent US20240316036A1, “DISULFIDE CONTAINING THERAPEUTICS AND DIAGNOSTICS” (Singular Genomics Systems, Inc., priority 2023, published 2024) are described below.

A short description of the assay: Cleavage kinetics of cleavable linking moieties (CLM) with reducing agent THPP, compounds immobilized on a solid support. The settings on record: 1 mM THPP, 55° C. It counts as physicochemical.

Protocol: For the assay, a plurality of compounds containing the CLM was immobilized on a solid support. Next, a cleavage solution containing 10 mM THPP as a reducing agent was introduced for controlled periods of time. A second labeled compound was introduced to the solid support; compounds without a CLM will bind the labeled compounds. The cleavage reaction was carried out at 55° C., in a buffer solution at 9.5 pH. The degree of cleavage was measured as the percent of compounds that include a labeled compound as a function of time.
A similar assay as described supra was performed, except that the concentration of the reducing agent was diluted to 1 mM of THPP and the cleavage reaction was carried out at 55° C.

With methylene disulfide [CLM #1], the cleavage reaction result is recorded as “slow”.
